This is an account of results in PMC8869655, “Identification of the Kinase-Substrate Recognition Interface between MYPT1 and Rho-Kinase” (Biomolecules, 2022).

Assay [1] deals with T1, GST-Rho-kinase-cat-L (bovine, residues 6–553) (Bos taurus, UniProt Q28021).
T1 construct: GST-Rho-kinase-cat-L (bovine, residues 6–553); made in house; host or cells: Sf9 cells (baculovirus)
The experiment in a line: In vitro kinase assay, Rho-kinase-cat-L activity. The class given is biochemical. Conditions: for Inhibition of Rho-kinase-cat-L activity (in words) / IC50: S6 rsk substrate peptide as substrate, 50 μM γ-[32P]ATP, 30 °C, scintillation counting, N = 3; for Inhibition of Rho-kinase-cat-L activity (in words): inhibitor at the indicated concentrations; for IC50: 10–20 min, cation-exchange membrane. As for the experimental part: The kinase reactions were performed in 50 μL of a reaction mixture (25 mM Tris-HCl, pH 7.5, 1 mM EDTA, 1 mM EGTA, 1 mM DTT, 5 mM MgCl2, and 50 μM γ-[^32P]ATP [1–20 GBq/mmol]), GST-Rho-kinase-cat-L or other kinases (1–10 nM), and substrates for 10–20 min at 30 °C. The reaction mixtures were applied to cation-exchange membranes and washed with 75 mM phosphoric acid three times, which was followed by scintillation counting.
Figure 4 Direct inhibition of Rho-kinase activity in vitro. (A) In vitro phosphorylation of S6 rsk substrate peptide by Rho-kinase. GST-Rho-kinase-cat-L or GST-ROCK1-cat-L activity was examined using the S6 rsk substrate peptide as a substrate in the presence of γ-[^32P]ATP. GST-MYPT1-684–868 aa-WT or -4A was added at the indicated concentrations. The reaction mixtures were applied onto cation-exchange membranes, followed by scintillation counting. N = 3. (B) Effects of the deletion of DMs on the inhibition of Rho-kinase activity in vitro. GST-Rho-kinase-cat-L activity was examined using the S6 rsk substrate peptide as a substrate in the presence of γ-[^32P]ATP. GST-MYPT1-684–868-4A with or without DMs was added at the indicated concentrations. The reaction mixtures were applied onto cation-exchange membranes, followed by scintillation counting. N = 3. The deletion of DM1 or DM2 moderately weakened the inhibitory effect and the deletion of both DM1 and DM2 completely abrogated the inhibitory effects of the MYPT1 fragment on the Rho-kinase activity. (C) Sequences of the DMs and phosphorylation sites of MYPT1. The sequences of MYPT1 683–715 aa and 836-860 aa and synthetic peptides are shown. Basic (blue), acidic (red), and aliphatic (green) amino acids within DMs are indicated. Phosphorylation sites are replaced by Ala in pseudosubstrate (PS) peptides. (D) Inhibition of Rho-kinase activity by PS2 + DM2 synthetic peptide. GST-Rho-kinase-cat-L activity was examined using the S6 rsk substrate peptide as a substrate in the presence of γ-[^32P]ATP. Synthetic peptides were added at the indicated concentrations. The reaction mixtures were applied onto cation-exchange membranes, followed by scintillation counting. N = 3. (E) Inhibition of Rho-kinase activity by PS1 + DM3 synthetic peptide. GST-Rho-kinase-cat-L activity was examined using the S6 rsk substrate peptide as a substrate in the presence of γ-[^32P]ATP. Synthetic peptides were added at the indicated concentrations. The reaction mixtures were applied onto cation-exchange membranes, followed by scintillation counting. N = 3.

In assay [2] the target is T1, GST-Rho-kinase-cat-L (bovine, residues 6–553). The experiment in a line: In vitro kinase assay, Rho-kinase-cat-L activity. Format: biochemical. The settings on record: synthetic peptide at the indicated concentrations, Figure S4, N=3.
Assay [3] concerns phosphorylation of GFP-MYPT1 at Thr855 in COS7 cells. The experiment in a line: Phosphorylation of GFP-MYPT1 in COS7 cells. The class given is cell-based. The settings on record: GST-MYPT1 fragment coexpressed with full-length GFP-MYPT1 in COS7 cells, 24 h, immunoblot anti-MYPT1-pT855 normalized by GFP-MYPT1. As for the experimental part: COS7 cells were seeded on a 6-well dish at a density of 1.8 × 10^5 cells/well in DMEM with 10% fetal bovine serum and cultured overnight. The cells were transfected with plasmids using LIPOFECTAMINE 2000^TM reagent, according to the manufacture’s protocol. After 24 h, the cells were washed twice with PBS, lysed in SDS–PAGE sample buffer and, subjected to immunoblot analysis using the indicated antibodies. The signals were visualized using HRP-conjugated secondary antibody and ECL prime detecting reagent (Cytiva, Marlborough, MA, USA) by X-lay film or imaging analyzer LAS 4010 (Cytiva, Marlborough, MA, USA). Signal intensities of phospho-GFP-MYPT1 and GFP-MYPT1 were analyzed using Fiji software and quantified from standard curves. The phospho-GFP-MYPT1 levels were normalized by GFP-MYPT1 levels.
Figure 3 Inhibition of MYPT1 phosphorylation by the Rho-kinase-binding fragment of MYPT1. […] The cell lysates were analyzed by immunoblot analysis using anti-MYPT1-pT855 (top panel), anti-GFP (middle), or anti-GST (bottom) antibodies. The phospho-GFP-MYPT1 levels were quantified and normalized by GFP-MYPT1 levels. […] The percentages of cells with stress fibers throughout the cell (SF(++)), cells with stress fibers partly in the cell (SF(+)), and cells without stress fibers (SF(–)) were analyzed. […]
Background: A western blot detects proteins with antibodies after separation by electrophoresis.

For a further assay, the system named is NIH3T3 cells. In words: Actin stress fiber formation in NIH3T3 cells. The class given is cell-based. Conditions: GST-MYPT1 fragment expressed in NIH3T3 cells, 24 h, phalloidin staining, N = 4. The method, then: NIH3T3 cells were seeded on polylysine-coated 13-mm coverslips at a density of 4 × 10^4 cells/well in a 6-well dish and cultured in DMEM with 10% calf serum overnight. The cells were transfected with plasmid using LIPOFECTAMINE LTX reagent (Thermo Fisher Scientific, Waltham, MA, USA), according to the manufacture’s protocol. After 24 h, the cells were incubated in fresh DMEM containing 10% calf serum for 20 min, fixed with 3.7% formaldehyde in PBS for 10 min and then treated with PBS containing 0.2% Triton X-100 for 10 min. The fixed cells were blocked with 1% bovine serum albumin for 30 min and stained with the indicated antibodies. Cover slips were mounted with Fluoromount (Diagnostic Biosystems, Pleasanton, CA, USA) and the fluorescence was examined using a confocal laser scanning microscope LSM 780 and LSM5 PASCAL built around an Axio Observer Z1 or Axiovert 200M under the control of LSM software (Carl Zeiss, Oberkochen, Germany). Images were processed using ImageJ or Photoshop (Adobe, San Jose, CA, USA).
Figure 3 Inhibition of MYPT1 phosphorylation by the Rho-kinase-binding fragment of MYPT1. (A,B) Effect of the overexpression of Rho-kinase-binding MYPT1 fragments on GFP-MYPT1 phosphorylation in COS7 cells. Full-length GFP-MYPT1 and the GST-MYPT1 Rho-kinase binding fragment were transiently expressed in COS7 cells. The cell lysates were analyzed by immunoblot analysis using anti-MYPT1-pT855 (top panel), anti-GFP (middle), or anti-GST (bottom) antibodies. The phospho-GFP-MYPT1 levels were quantified and normalized by GFP-MYPT1 levels. Data represent means ± SD. **, p < 0.01, ***, p < 0.001 as compared with the control. (C) Effect of the overexpression of Rho-kinase-binding MYPT1 fragments on stress fiber formation in NIH3T3 cells. GST-MYPT1 fragments were expressed in NIH3T3 cells. The cells were fixed in formaldehyde, and immunostained with phalloidin and anti-GST antibody. […] The percentages of cells with stress fibers throughout the cell (SF(++)), cells with stress fibers partly in the cell (SF(+)), and cells without stress fibers (SF(–)) were analyzed. […]

The target in assay [4] is GFP-Rho-kinase-cat-L (6–553 aa, long form of catalytic fragment) (bovine).

Residues, ends and D or L forms follow the SMILES beside them. No end group written: not given here.

Usually IC50 stands for the point on the concentration scale where inhibition reaches its midpoint. A high value points to weaker potency.

T1 sequence (Q28021 6-553): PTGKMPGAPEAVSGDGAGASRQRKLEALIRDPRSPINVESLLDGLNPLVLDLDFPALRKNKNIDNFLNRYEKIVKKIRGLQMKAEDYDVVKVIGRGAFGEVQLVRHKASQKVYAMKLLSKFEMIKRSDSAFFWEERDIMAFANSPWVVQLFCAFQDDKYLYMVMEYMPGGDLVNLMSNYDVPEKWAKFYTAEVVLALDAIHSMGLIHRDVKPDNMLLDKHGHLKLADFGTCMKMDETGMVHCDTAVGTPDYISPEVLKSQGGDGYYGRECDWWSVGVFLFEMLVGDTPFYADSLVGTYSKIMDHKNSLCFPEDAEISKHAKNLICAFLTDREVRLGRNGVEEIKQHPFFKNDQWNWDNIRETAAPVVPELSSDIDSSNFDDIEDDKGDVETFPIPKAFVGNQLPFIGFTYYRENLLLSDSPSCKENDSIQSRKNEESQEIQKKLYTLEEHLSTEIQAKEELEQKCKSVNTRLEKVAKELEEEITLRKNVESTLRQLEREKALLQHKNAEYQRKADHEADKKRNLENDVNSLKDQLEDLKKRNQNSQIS

Take “QSRRAAQGVTLTDLQEAEKTIGRS [PS1 + DM1, synthetic peptide, MYPT1 692–715 aa, pseudosubstrate 1 plus docking motif 1]”: in assay [1] (100 μM peptide, data not shown), the “Inhibition of Rho-kinase activity at higher concentration (in words)” value is on record as “mild inhibitory effect”. Moreover, the “Inhibition of Rho-kinase-cat-L activity (in words)” value in assay [1] is listed as “did not show an inhibitory effect”.
As to “KSQPKSIRERRRPR [DM2, synthetic peptide, MYPT1 836–849 aa, docking motif 2]”, the “Inhibition of Rho-kinase-cat-L activity (in words)” value in assay [1] is reported as “moderately inhibited”.
With `CC[C@H](C)[C@H](NC(=O)[C@H](CO)NC(=O)[C@H](CCCCN)NC(=O)[C@@H]1CCCN1C(=O)[C@H](CCC(N)=O)NC(=O)[C@H](CO)NC(=O)[C@@H](N)CCCCN)C(=O)N[C@@H](CCCNC(=N)N)C(=O)N[C@@H](CCC(=O)O)C(=O)N[C@@H](CCCNC(=N)N)C(=O)N[C@@H](CCCNC(=N)N)C(=O)N[C@@H](CCCNC(=N)N)C(=O)N1CCC[C@H]1C(=O)N[C@@H](CCCNC(=N)N)C(=O)N[C@@H](CCC(=O)O)C(=O)N[C@@H](CCCCN)C(=O)N[C@@H](CCCNC(=N)N)C(=O)N[C@@H](CCCNC(=N)N)C(=O)N[C@@H](C)C(=O)N[C@@H](C)C(=O)NCC(=O)N[C@H](C(=O)N[C@@H](CO)C(=O)N[C@@H](Cc1ccccc1)C(=O)N[C@@H](Cc1c[nH]c2ccccc12)C(=O)O)C(C)C` [PS2 + DM2] (H-KSQPKSIRERRRPREKRRAAGVSFW-OH; N-terminus and C-terminus assumed), in assay [1], the IC50 was under 1000 nM and the “Inhibition of Rho-kinase-cat-L activity (in words)” value is listed as “strongly inhibited”. The “Inhibition of phosphorylation of MLC by Rho-kinase” value in assay [2] (substrate GST-MLC (1 µM)) is given as “inhibited”. Moreover, in assay [2] (substrate GST-MYPT1-684-868 aa (0.5 µM)), the “Inhibition of phosphorylation of MYPT1 by Rho-kinase” value is “inhibited”. The “Inhibition of phosphorylation of Scrib by Rho-kinase” value in assay [2] (substrate GST-Scrib-C (1235-1630 aa) (1 µM)) is “inhibited”.
On to `CC(C)C[C@H](NC(=O)[C@@H](NC(=O)[C@@H](NC(=O)CNC(=O)[C@H](CCC(N)=O)NC(=O)[C@H](C)NC(=O)[C@H](C)NC(=O)[C@H](CCCNC(=N)N)NC(=O)[C@H](CCCNC(=N)N)NC(=O)[C@H](CO)NC(=O)[C@H](CCC(N)=O)NC(=O)[C@H](CCCNC(=N)N)NC(=O)[C@H](C)NC(=O)[C@H](CCC(N)=O)NC(=O)[C@H](CCCNC(=N)N)NC(=O)[C@H](CO)NC(=O)[C@H](CCCNC(=N)N)NC(=O)[C@H](C)NC(=O)[C@H](CCCCN)NC(=O)[C@@H](N)CCCNC(=N)N)C(C)C)[C@@H](C)O)C(=O)N[C@H](C(=O)O)[C@@H](C)O` [PS1 + DM3] (H-RKARSRQARQSRRAAQGVTLT-OH; N-terminus and C-terminus assumed), for which, in assay [1], the half-maximal inhibitory concentration (IC50) is under 1000 nM and the “Inhibition of Rho-kinase-cat-L activity (in words)” value is “inhibited Rho-kinase activity to a similar extent as PS2 + DM2”.

B1: MYPT1-655-715 aa: GST-fused MYPT1 fragment 655–715 aa (protein, UniProt Q10728 655-715, looked up, fragment)
chain: GTLSSTSEVRERRRSYLTPVRDEESESQRKARSRQARQSRRSTQGVTLTDLQEAEKTIGRS
modifications: also: GST fusion
notes: GST-fused MYPT1 fragment 655–715 aa
Take B1: in assay [3], the “Effect on phosphorylation of GFP-MYPT1 at Thr855” value is “decreased the phosphorylation of MYPT1”. In the assay with NIH3T3 cells, the “Effect on actin stress fiber formation” value is reported as “rather enhanced stress fiber formation”.

B2: PS1 + DM3 synthetic peptide (MYPT1 683–703 aa) (peptide)
peptide: RKARSRQARQSRRAAQGVTLT
modifications: not fully specified
B2 came in with an IC50 of inhibition of the in vitro kinase activity of GST-Rho-kinase-cat-L on the S6 rsk substrate peptide (Figure 4E) in assay [4] of under 1000 nM.

B3: MYPT1-684–868 aa: GST-fused rat MYPT1 fragment 684–868 aa containing DMs and four phosphorylation sites (protein)
chain: KARSRQARQSRRSTQGVTLTDLQEAEKTIGRSRSTRTREQENEEKDKEEKEKQDKEKQEEKKESEVSREDEYKQKYSRTYDETYARYRPVSTSSSSTPSSSSLSTLGSSLYASSQLNRPNSLVGITSAYSRGLTKDNEREGEKKEEEKEGEDKSQPKSIRERRRPREKRRSTGVSFWTQDSDENE
modifications: left off: GST, end not stated, kept
notes: GST-fused rat MYPT1 fragment 684–868 aa containing DMs and four phosphorylation sites
For the molecule B3, in assay [1], the “Inhibition of Rho-kinase-cat-L activity (in words)” value is “inhibited the Rho-kinase-cat-L activity in a dose-dependent manner”. Besides, in assay [3], the “Effect on phosphorylation of GFP-MYPT1 at Thr855” value was “strongly inhibited”. For the same molecule, the “Effect on actin stress fiber formation” value in the assay on NIH3T3 cells was “reduced actin stress fibers”.

B4: PS2 + DM2 synthetic peptide (MYPT1 836–860 aa) (peptide)
peptide: KSQPKSIRERRRPREKRRAAGVSFW
modifications: not fully specified
B4 had an IC50 of inhibition of the in vitro kinase activity of GST-Rho-kinase-cat-L on the S6 rsk substrate peptide (Figure 4D) in assay [4] of under 1000 nM.
